Data reported in patent US9499550B2 (BRISTOL-MYERS SQUIBB COMPANY, priority 2012, dated 2016).
Like-named read-outs stand apart in the source and are kept apart here.

What was measured:
[1] = system: HCV genotype 1a (H77 strain) replicon in HUH-7 cells; assay: HCV replicon luciferase reporter assay, genotype 1a; format: cell-based; conditions: Hepatitis C virus, Huh-7, 72 h, 3 days incubation
How it was run: (§1)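 Replicon inhibition for both genotypes was measured as Renilla luciferase signal (EnduRen, 7.5 μM final, 2 h) after 3-day, 37° C exposure of replicon-bearing HUH-7 cells in 4% FCS DMEM, 0.5% DMSO. The 1b construct carries S1179I; the 1a H77 construct carries P1496L and S2204I. Twenty-point, 3-fold dilutions were fitted four-parametrically for EC50, and CC50 was taken from multiplexed Cell Titer-Blue.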

[2] = system: HCV genotype 1b (Con1) replicon in HUH-7 cells; assay: HCV replicon luciferase reporter assay, genotype 1b; format: cell-based; conditions: Hepatitis C virus, Huh-7, 72 h, 3 days incubation
How it was run: as §1

[3] = HCV genotype 1a replicon luciferase, read-out: LE_1a (EC50, range)
[4] = HCV genotype 1b replicon luciferase, read-out: LE_1b (EC50, range)
[5] = GETYPE1A, HCV genotype 1a replicon luciferase, read-out: LE_1a (EC50, range)
[6] = GETYPE1B, HCV genotype 1b replicon luciferase, read-out: LE_1b (EC50, range)

Compound | EC50 [1, 3] [nM] | EC50 [2, 4] [nM] | EC50 [1, 5] [nM] | EC50 [2, 6] [nM] | other results
C[C@H]1CC/C=C\[C@@H]2C[C@@]2(C(=O)NS(=O)(=O)C2(C)CC2)NC(=O)[C@@H]2C[C@@H](Oc3nccc4c5c(ccc34)OCCO5)CN2C(=O)[C@@H](NC(=O)O[C@@H]2C[C@@H]3C[C@@H]3C2)[C@H](C)C1 [Compound 5248, (1R,3r,5 S)-bicyclo[3.1.0]hexan-3-yl((2R,6S,7R,9S,13aS,14aR,16aS,Z)-2-((2,3-dihydro-[1,4]dioxino[2,3-f]isoquinolin-7-yl)oxy)-7,9-dimethyl-14a-(((1-methylcyclopropyl)sulfonyl)carbamoyl)-5,16-dioxo-1,2,3,5,6,7,8,9,10,11,13a,14,14a,15,16,16a-hexadecahydrocyclopropa[e]pyrrolo[1,2-a][1,4]diazacyclopentadecin-6-yl)carbamate] | 4.82 to 103 | < 5.46 |  |  | 
CC[C@@H]1C[C@@H](C)CC/C=C\[C@@H]2C[C@@]2(C(=O)NS(=O)(=O)C2(C)CC2)NC(=O)[C@@H]2C[C@@H](Oc3nccc4c5c(ccc34)OCCO5)CN2C(=O)[C@H]1NC(=O)OC(C)(C)C(C)(F)F [Compound 5331, 3,3-difluoro-2-methylbutan-2-yl((2R,6S,7R,9S,13aS,14aR,16aS,Z)-2-((2,3-dihydro-[1,4]dioxino[2,3-f]isoquinolin-7-yl)oxy)-7-ethyl-9-methyl-14a-(((1-methylcyclopropyl)sulfonyl)carbamoyl)-5,16-dioxo-1,2,3,5,6,7,8,9,10,11,13a,14,14a,15,16,16a-hexadecahydrocyclopropa[e]pyrrolo[1,2-a][1,4]diazacyclopentadecin-6-yl)carbamate] | 4.82 to 103 | < 5.46 |  |  | EC50 ([1]; HCV genotype 1a replicon luciferase, read-out: LE_1a (EC50)): 12.8 nM; EC50 ([2]; HCV genotype 1b replicon luciferase, read-out: LE_1b (EC50)): 3.94 nM
COc1cnc(O[C@@H]2C[C@H]3C(=O)N[C@]4(C(=O)NS(=O)(=O)C5(C)CC5)C[C@H]4/C=C\CC[C@@H](C)C[C@@H](C)[C@H](NC(=O)OC(C)(C)C(F)(F)F)C(=O)N3C2)c2cccc(Cl)c12 [Compound 4065] |  |  | < 5.46 | < 5.46 | 
CCn1nc(O[C@@H]2C[C@H]3C(=O)N[C@]4(C(=O)NS(=O)(=O)C5CC5)C[C@H]4/C=C\CC[C@@H](C)C[C@@H](C)[C@H](NC(=O)c4ccc(N(C)C)cc4)C(=O)N3C2)c2ccccc2c1=O [Compound 5074, (2R,6S,7R,9R,13aS,14aR,16aS,Z)—N-(cyclopropylsulfonyl)-6-(4-(dimethylamino)benzamido)-2-((3-ethyl-4-oxo-3,4-dihydrophthalazin-1-yl)oxy)-7,9-dimethyl-5,16-dioxo-1,2,3,5,6,7,8,9,10,11,13a,14,14a,15,16,16a-hexadecahydrocyclopropa[e]pyrrolo[1,2-a][1,4]diazacyclopentadecine-14a-carboxamide] | 4.82 to 103 | 4.82 to 103 |  |  | 
COc1ccc2c(O[C@@H]3C[C@H]4C(=O)N[C@]5(C(=O)NS(=O)(=O)C6(C)CC6)C[C@H]5/C=C\CC[C@@H](C)C[C@@H](C)[C@H](NC(=O)OC(C)(C)C(C)(F)F)C(=O)N4C3)nc(-c3ccc(OC(C)C)cc3)c(OC)c2c1 [Compound 5346, 3,3-difluoro-2-methylbutan-2-yl((2R,6S,7R,9R,13aS,14aR,16aS,Z)-2-((3-(4-isopropoxyphenyl)-4,6-dimethoxyisoquinolin-1-yl)oxy)-7,9-dimethyl-14a-(((1-methylcyclopropyl)sulfonyl)carbamoyl)-5,16-dioxo-1,2,3,5,6,7,8,9,10,11,13a,14,14a,15,16,16a-hexadecahydrocyclopropa[e]pyrrolo[1,2-a][1,4]diazacyclopentadecin-6-yl)carbamate] | < 5.46 | < 5.46 |  |  | 
CC[C@@H]1C[C@H](C)CC/C=C\[C@@H]2C[C@@]2(C(=O)NS(=O)(=O)C2(C)CC2)NC(=O)[C@@H]2C[C@@H](Oc3nnc(OC)c4ccccc34)CN2C(=O)[C@H]1NC(=O)OC(C)(C)C [Compound 5026, tert-butyl ((2R,6S,7R,9R,13aS,14aR,16aS,Z)-7-ethyl-2-((4-methoxyphthalazin-1-yl)oxy)-9-methyl-14a-(((1-methylcyclopropyl)sulfonyl)carbamoyl)-5,16-dioxo-1,2,3,5,6,7,8,9,10,11,13a,14,14a,15,16,16a-hexadecahydrocyclopropa[e]pyrrolo[1,2-a][1,4]diazacyclopentadecin-6-yl)carbamate] | < 5.46 | < 5.46 |  |  | 
CC(C)Oc1ccc2nc(C(F)(F)F)c(O[C@@H]3C[C@H]4C(=O)N[C@]5(C(=O)NS(=O)(=O)C6(C)CC6)C[C@H]5/C=C\CC[C@@H](C)C[C@@H](C)[C@H](NC(=O)OC(C)(C)C(F)(F)F)C(=O)N4C3)nc2c1 [Compound 4336] |  |  | 0.51 to 1 | 0.51 to 1 | 
CC(C)Oc1cc2ccccc2c(O[C@@H]2C[C@H]3C(=O)N[C@]4(C(=O)NS(=O)(=O)C5(C)CC5)C[C@H]4/C=C\CC[C@@H](C)C[C@@H](C)[C@H](NC(=O)OC(C)(C)C)C(=O)N3C2)n1 [Compound 6098, tert-butyl ((2R,6S,7R,9R,13aS,14aR,16aS,Z)-2-((3-isopropoxyisoquinolin-1-yl)oxy)-7,9-dimethyl-14a-(((1-methylcyclopropyl)sulfonyl)carbamoyl)-5,16-dioxo-1,2,3,5,6,7,8,9,10,11,13a,14,14a,15,16,16a-hexadecahydrocyclopropa[e]pyrrolo[1,2-a][1,4]diazacyclopentadecin-6-yl)carbamate] | 0.51 to 1 | 0.1 to 0.5 |  |  | 
COc1cnc(O[C@@H]2C[C@H]3C(=O)N[C@]4(C(=O)NS(=O)(=O)C5CC5)C[C@H]4/C=C\CC[C@@H](C)C[C@@H](C)[C@H](NC(=O)OC(C)(C)C(F)(F)F)C(=O)N3C2)c2cccc(Cl)c12 [Compound 27, 1,1,1-trifluoro-2-methylpropan-2-yl((2R,6S,7R,9R,13aS,14aR,16aS,Z)-2-((5-chloro-4-methoxyisoquinolin-1-yl)oxy)-14a-((cyclopropylsulfonyl)carbamoyl)-7,9-dimethyl-5,16-dioxo-1,2,3,5,6,7,8,9,10,11,13a,14,14a,15,16,16a-hexadecahydrocyclopropa[e]pyrrolo[1,2-a][1,4]diazacyclopentadecin-6-yl)carbamate] |  |  |  |  | EC50 ([1]; HCV genotype 1a replicon luciferase assay, range class, read-out: LE_1a (EC50, range)): < 5.46 nM; EC50 ([2]; HCV genotype 1b replicon luciferase assay, range class, read-out: LE_1b (EC50, range)): < 5.46 nM
C[C@H]1CC/C=C\[C@@H]2C[C@@]2(C(=O)NS(=O)(=O)C2CC2)NC(=O)[C@@H]2C[C@@H](Oc3nccc4c5c(ccc34)OC(F)(F)O5)CN2C(=O)[C@@H](NC(=O)O[C@H](C)C(F)(F)F)[C@H](C)C1 [Compound 5269, (R)-1,1,1-trifluoropropan-2-yl ((2R,6S,7R,9S,13aS,14aR,16aS,Z)-14a-((cyclopropylsulfonyl)carbamoyl)-2((2,2-difluoro-[1,3]dioxolo[4,5-f]isoquinolin-6-yl)oxy)-7,9-dimethyl-5,16-dioxo-1,2,3,5,6,7,8,9,10,11,13a,14,14a,15,16,16a-hexadecahydrocyclopropa[e]pyrrolo[1,2-a][1,4]diazacyclopentadecin-6-yl)carbamate] | 4.82 to 103 | 4.82 to 103 |  |  | 
COc1ccc2nc(O[C@@H]3C[C@H]4C(=O)N[C@]5(C(=O)NS(=O)(=O)C6(C)CC6)C[C@H]5/C=C\CC[C@@H](C)C[C@@H](C)[C@H](NC(=O)OC(C)(C)C(F)(F)F)C(=O)N4C3)cnc2c1 [Compound 4163] |  |  | 4.82 to 103 | < 5.46 | EC50 ([1]; GETYPE1A, HCV genotype 1a replicon luciferase, read-out: LE_1a (EC50)): 9.8 nM; EC50 ([2]; GETYPE1B, HCV genotype 1b replicon luciferase, read-out: LE_1b (EC50)): 1.89 nM
COc1cnc(O[C@@H]2C[C@H]3C(=O)N[C@]4(C(=O)NS(=O)(=O)C5(C)CC5)C[C@H]4/C=C\CC[C@@H](C)C[C@@H](C)[C@H](NC(=O)OC(C)(C)C(F)(F)F)C(=O)N3C2)c2ccccc12 [Compound 4052] | < 5.46 | < 5.46 |  |  | 
COc1cc2ccnc(O[C@@H]3C[C@H]4C(=O)N[C@]5(C(=O)NS(=O)(=O)C6(CF)CC6)C[C@H]5/C=C\CC[C@H](C)C[C@@H](C)[C@H](NC(=O)OC(C)(C)C(F)(F)F)C(=O)N4C3)c2cc1F [Compound 1186] |  |  | 5.01 to 35 | 1.01 to 5 | 
CCOc1ccc2c(O[C@@H]3C[C@H]4C(=O)N[C@]5(C(=O)NS(=O)(=O)C6(C)CC6)C[C@H]5/C=C\CC[C@@H](C)C[C@@H](C)[C@H](NC(=O)NC(C)(C)C(F)(F)F)C(=O)N4C3)nccc2c1 [Compound 5144, (2R,6S,7R,9R,13aS,14aR,16aS,Z)-2-((6-ethoxyisoquinolin-1-yl)oxy)-7,9-dimethyl-N-((1-methylcyclopropyl)sulfonyl)-5,16-dioxo-6-(3-(1,1,1-trifluoro-2-methylpropan-2-yl)ureido)-1,2,3,5,6,7,8,9,10,11,13a,14,14a,15,16,16a-hexadecahydrocyclopropa[e]pyrrolo[1,2-a][1,4]diazacyclopentadecine-14a-carboxamide] | 4.82 to 103 | < 5.46 |  |  | 
CC[C@@H]1C[C@H](C)CC/C=C\[C@@H]2C[C@@]2(C(=O)NS(=O)(=O)C2CC2)NC(=O)[C@@H]2C[C@@H](Oc3cc(OC)nc4cc(OC)ccc34)CN2C(=O)[C@H]1NC(=O)OC(C)(C)C(C)(F)F [Compound 1212] |  |  | 1.01 to 5 | 0.1 to 0.5 | 
